These results are taken from US11957759B1, “Rapidly accelerated fibrosarcoma (RAF) degrading compounds and associated methods of use” (Arvinas Operations, Inc., priority 2022, dated 2024).

One test concerns the target T1, B-RAF V600E (Homo sapiens, UniProt P15056, V600E).
T1 construct: expressed in transfected cells; host or cells: T-Rex 293 cells (Invitrogen #R71007)
Put plainly: Target protein degradation, assay C: T-Rex 293 cells, HA-BRAF_V600E, 384 well format. The class given is cell-based. To be noted: T-Rex 293 HA-BRAF_V600E cells, 24 hours, Examples 83-269; for DC50: Assay C; for Dmax: T-REx-293, Assay C. The essentials:
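T-Rex 293 cells stably expressing doxycycline-induced (1 ng/mL) HA-BRAF V600E were treated 24 h at 37 °C with compound (300 nM–5 pM, 11 points, 0.5% DMSO). HA immunofluorescence was quantified by high-content imaging to give DC50 and Dmax (% of control); nuclei counts versus DMSO gauged toxicity.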

For the next test, the target named is T2, B-RAF G466V (Homo sapiens, UniProt P15056, G466V).
T2 construct: expressed in transfected cells; host or cells: T-Rex 293 cells (Invitrogen #R71007)
T2 sequence (P15056 whole entry G466V): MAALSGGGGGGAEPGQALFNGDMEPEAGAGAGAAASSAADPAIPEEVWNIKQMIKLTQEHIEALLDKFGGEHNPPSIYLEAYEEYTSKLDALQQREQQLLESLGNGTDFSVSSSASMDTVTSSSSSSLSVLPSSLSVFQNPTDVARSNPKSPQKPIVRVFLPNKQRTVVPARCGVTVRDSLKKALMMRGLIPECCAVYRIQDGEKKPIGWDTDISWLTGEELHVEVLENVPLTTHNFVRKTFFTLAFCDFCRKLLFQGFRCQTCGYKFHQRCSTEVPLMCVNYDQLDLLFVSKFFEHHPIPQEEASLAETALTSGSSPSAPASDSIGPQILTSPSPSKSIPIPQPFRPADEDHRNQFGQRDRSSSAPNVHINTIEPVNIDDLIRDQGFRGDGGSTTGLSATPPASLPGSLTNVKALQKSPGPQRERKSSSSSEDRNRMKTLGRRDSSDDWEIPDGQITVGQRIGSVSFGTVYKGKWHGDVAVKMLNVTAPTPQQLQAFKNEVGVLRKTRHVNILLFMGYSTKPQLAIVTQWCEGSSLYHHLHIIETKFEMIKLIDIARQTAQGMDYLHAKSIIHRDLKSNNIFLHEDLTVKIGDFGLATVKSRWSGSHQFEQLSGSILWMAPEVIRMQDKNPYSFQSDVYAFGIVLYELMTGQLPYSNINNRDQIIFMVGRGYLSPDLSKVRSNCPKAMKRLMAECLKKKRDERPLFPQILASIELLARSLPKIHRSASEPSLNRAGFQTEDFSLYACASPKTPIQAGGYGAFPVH
Put plainly: Target protein degradation, assay D: T-Rex 293 cells, HA-BRAF_G466V, 384 well format. In kind it is cell-based. Conditions: T-Rex 293 HA-BRAF_G466V cells, 24 hours, Examples 83-269; for DC50: Assay D; for Dmax: T-REx-293, Assay D. In a few lines: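 T-Rex 293 cells stably expressing doxycycline-induced (1 ng/mL) HA-BRAF G466V treated 24 h at 37 °C with PROTACs, 11-point 1:3 dilution, 300 nM to 5 pM final, 0.5% DMSO. Fixed cells immunostained for HA and imaged by high-content microscopy; DC50 and Dmax (% of control) derived, toxicity from nuclei counts versus DMSO.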

SMILES strings stand for the structures.

T1 sequence (P15056 whole entry V600E): as the sequence (P15056 whole entry G466V) above, with V466G, V600E counted along it

In general, DC50 refers to the concentration at which degradation of the target reaches its halfway point. As a reminder, the Dmax is the largest share of the target that was removed. In the case of `CN(c1ccc2c(c1)CN([C@H]1CCC(=O)NC1=O)C2=O)[C@H]1CC[C@H](N2CCN(c3ccc(-n4cnc5ccc(Oc6c(F)ccc(NS(=O)(=O)N7CC[C@@H](F)C7)c6C#N)cc5c4=O)cc3)CC2)CC1` [Example 231, (3R)-N-(2-cyano-4-fluoro-3-{[4-oxo-3-(4-(4-[(1s,4s)-4-({2-[(3S)-2,6-dioxopiperidin-3-yl]-1-oxo-2,3-dihydro-1H-isoindol-5-yl}(methyl)amino)cyclohexyl]piperazin-1-yl}phenyl)-3,4-dihydroquinazolin-6-yl]oxy}phenyl)-3-fluoropyrrolidine-1-sulfonamide], the DC50 at B-RAF V600E lay within 50 to 500 nM; at B-RAF G466V, 1 to 10 nM. In addition, the Dmax at B-RAF V600E and on B-RAF G466V was 35 to 70% in each case.

On B-RAF V600E, `C[C@H]1CC(CN2CCC(c3ccc4c(c3)CN(C3CCC(=O)NC3=O)C4=O)CC2)CCN1c1ccc(-n2cnc3ccc(Oc4c(F)ccc(NS(=O)(=O)N5CC[C@@H](F)C5)c4C#N)cc3c2=O)cc1` (stereo partly drawn) [Example 232, (3R)-N-{2-cyano-3-[(3-{4-[(2S)-4-({4-[2-(2,6-dioxopiperidin-3-yl)-1-oxo-2,3-dihydro-1H-isoindol-5-yl]piperidin-1-yl}methyl)-2-methylpiperidin-1-yl]phenyl}-4-oxo-3,4-dihydroquinazolin-6-yl)oxy]-4-fluorophenyl}-3-fluoropyrrolidine-1-sulfonamide] had a DC50 of 50 to 500 nM and a Dmax of 35 to 70%. On B-RAF G466V, this molecule came in with a DC50 of 1 to 10 nM and a Dmax of 35 to 70%.

At B-RAF V600E, `N#Cc1c(NS(=O)(=O)N2CC[C@@H](F)C2)ccc(F)c1Oc1ccc2ncn(-c3ccc(N4CCC(CN5CC6(CCN(c7ccc8c(c7)CN([C@H]7CCC(=O)NC7=O)C8=O)CC6)C5)C4)cc3)c(=O)c2c1` (stereo partly drawn) [Example 233, (3R)-N-(2-cyano-3-{[3-(4-{3-[(7-{2-[(3S)-2,6-dioxopiperidin-3-yl]-1-oxo-2,3-dihydro-1H-isoindol-5-yl}-2,7-diazaspiro[3.5]nonan-2-yl)methyl]pyrrolidin-1-yl}phenyl)-4-oxo-3,4-dihydroquinazolin-6-yl]oxy}-4-fluorophenyl)-3-fluoropyrrolidine-1-sulfonamide] gave a DC50 of 50 to 500 nM and a maximal degradation (Dmax) of 35 to 70%. At B-RAF G466V, this molecule came in with a DC50 of 10 to 30 nM and a Dmax of 35 to 70%.

Regarding `Cc1cc(N2CC(CN3CCN(c4ccc(-n5cnc6ccc(Oc7c(F)ccc(NS(=O)(=O)N8CC[C@@H](F)C8)c7C#N)cc6c5=O)cc4)CC3)C2)cc2c1C(=O)N([C@H]1CCC(=O)NC1=O)C2` [Example 234, (3R)-N-(2-cyano-3-{[3-(4-{4-[(1-{2-[(3S)-2,6-dioxopiperidin-3-yl]-7-methyl-1-oxo-2,3-dihydro-1H-isoindol-5-yl}azetidin-3-yl)methyl]piperazin-1-yl}phenyl)-4-oxo-3,4-dihydroquinazolin-6-yl]oxy}-4-fluorophenyl)-3-fluoropyrrolidine-1-sulfonamide], at B-RAF V600E, the DC50 fell in the range of 50 to 500 nM and the Dmax was in the range of 35 to 70%. At B-RAF G466V, the DC50 was 1 to 10 nM and the Dmax lay in the range of 35 to 70%.

For `Cc1cc(N2CC(CN3CCN(c4ccc(-n5cnc6ccc(Oc7c(F)ccc(NS(=O)(=O)N8CC[C@@H](F)C8)c7C#N)cc6c5=O)cc4)CC3)C2)cc2c1C(=O)N([C@@H]1CCC(=O)NC1=O)C2` [Example 235, (3R)-N-(2-cyano-3-{[3-(4-{4-[(1-{2-[(3R)-2,6-dioxopiperidin-3-yl]-7-methyl-1-oxo-2,3-dihydro-1H-isoindol-5-yl}azetidin-3-yl)methyl]piperazin-1-yl}phenyl)-4-oxo-3,4-dihydroquinazolin-6-yl]oxy}-4-fluorophenyl)-3-fluoropyrrolidine-1-sulfonamide], the DC50 at B-RAF V600E lay in the range of 50 to 500 nM; on B-RAF G466V, 1 to 10 nM. Besides, the greatest degradation seen (Dmax) at B-RAF V600E and at B-RAF G466V was 35 to 70% each time.

At B-RAF V600E, `COc1cc(N2CC(CN3CCN(c4ccc(-n5cnc6ccc(Oc7c(F)ccc(NS(=O)(=O)N8CC[C@@H](F)C8)c7C#N)cc6c5=O)cc4)CC3)C2)cc2c1C(=O)N([C@H]1CCC(=O)NC1=O)C2` [Example 236, (3R)-N-(2-cyano-3-{[3-(4-{4-[(1-{2-[(3S)-2,6-dioxopiperidin-3-yl]-7-methoxy-1-oxo-2,3-dihydro-1H-isoindol-5-yl}azetidin-3-yl)methyl]piperazin-1-yl}phenyl)-4-oxo-3,4-dihydroquinazolin-6-yl]oxy}-4-fluorophenyl)-3-fluoropyrrolidine-1-sulfonamide] displayed a half-maximal degradation concentration (DC50) of 50 to 500 nM and a Dmax of 35 to 70%. In addition, on B-RAF G466V, the DC50 lay within 10 to 30 nM and the Dmax is at least 70%.

For `COc1cc(N2CC(CN3CCN(c4ccc(-n5cnc6ccc(Oc7c(F)ccc(NS(=O)(=O)N8CC[C@@H](F)C8)c7C#N)cc6c5=O)cc4)CC3)C2)cc2c1C(=O)N([C@@H]1CCC(=O)NC1=O)C2` [Example 237, (3R)-N-(2-cyano-3-{[3-(4-{4-[(1-{2-[(3R)-2,6-dioxopiperidin-3-yl]-7-methoxy-1-oxo-2,3-dihydro-1H-isoindol-5-yl}azetidin-3-yl)methyl]piperazin-1-yl}phenyl)-4-oxo-3,4-dihydroquinazolin-6-yl]oxy}-4-fluorophenyl)-3-fluoropyrrolidine-1-sulfonamide], the DC50 at B-RAF V600E fell in the range of 50 to 500 nM; on B-RAF G466V, 1 to 10 nM. The figures for the Dmax on B-RAF V600E and on B-RAF G466V were 35 to 70% and at least 70%, respectively.

On to `N#Cc1c(NS(=O)(=O)N2CC[C@@H](F)C2)ccc(F)c1Oc1ccc2ncn(-c3ccc(N4CCC(CN5CC6(CCN(c7ccc8c(c7)CN([C@H]7CCC(=O)NC7=O)C8=O)CC6)C5)CC4)cc3)c(=O)c2c1` [Example 238, (3R)-N-(2-cyano-3-{[3-(4-{4-[(7-{2-[(3S)-2,6-dioxopiperidin-3-yl]-1-oxo-2,3-dihydro-1H-isoindol-5-yl}-2,7-diazaspiro[3.5]nonan-2-yl)methyl]piperidin-1-yl}phenyl)-4-oxo-3,4-dihydroquinazolin-6-yl]oxy}-4-fluorophenyl)-3-fluoropyrrolidine-1-sulfonamide], for which, on B-RAF V600E, the DC50 is 50 to 500 nM and the Dmax is at least 70%. For the same molecule, at B-RAF G466V, the DC50 is 1 to 10 nM and the Dmax was at least 70%.

Turning to `N#Cc1c(NS(=O)(=O)N2CC[C@@H](F)C2)ccc(F)c1Oc1ccc2ncn(-c3cccc(N4CCN(CC5CCN(c6ccc7c(c6)CN([C@H]6CCC(=O)NC6=O)C7=O)CC5)CC4)c3)c(=O)c2c1` [Example 239, (3R)-N-(2-cyano-3-{[3-(3-{4-[(1-{2-[(3S)-2,6-dioxopiperidin-3-yl]-1-oxo-2,3-dihydro-1H-isoindol-5-yl}piperidin-4-yl)methyl]piperazin-1-yl}phenyl)-4-oxo-3,4-dihydroquinazolin-6-yl]oxy}-4-fluorophenyl)-3-fluoropyrrolidine-1-sulfonamide], at B-RAF V600E, the DC50 lay within 50 to 500 nM and the Dmax is at least 70%. At B-RAF G466V, this molecule returned a DC50 of 1 to 10 nM and a Dmax of at least 70%.

At B-RAF V600E, `N#Cc1c(NS(=O)(=O)N2CC[C@@H](F)C2)ccc(F)c1Oc1ccc2ncn(-c3cccc(C4CCN(CC5CCN(c6ccc7c(c6)CN([C@H]6CCC(=O)NC6=O)C7=O)CC5)CC4)c3)c(=O)c2c1` [Example 240, (3R)-N-(2-cyano-3-{[3-(3-{1-[(1-{2-[(3S)-2,6-dioxopiperidin-3-yl]-1-oxo-2,3-dihydro-1H-isoindol-5-yl}piperidin-4-yl)methyl]piperidin-4-yl}phenyl)-4-oxo-3,4-dihydroquinazolin-6-yl]oxy}-4-fluorophenyl)-3-fluoropyrrolidine-1-sulfonamide] registered a DC50 of 5 to 50 nM and a Dmax of at least 70%. In addition, at B-RAF G466V, the DC50 is 1 to 10 nM and the Dmax was at least 70%.

Molecule `N#Cc1c(NS(=O)(=O)N2CC[C@@H](F)C2)ccc(F)c1Oc1ccc2ncn(-c3ccc(N4CCN(C(=O)C5CN(c6ccc7c(c6)CN([C@H]6CCC(=O)NC6=O)C7=O)C5)CC4)cc3)c(=O)c2c1` [Example 243, (3R)-N-{2-cyano-3-[(3-{4-[4-(1-{2-[(3S)-2,6-dioxopiperidin-3-yl]-1-oxo-2,3-dihydro-1H-isoindol-5-yl}azetidine-3-carbonyl)piperazin-1-yl]phenyl}-4-oxo-3,4-dihydroquinazolin-6-yl)oxy]-4-fluorophenyl}-3-fluoropyrrolidine-1-sulfonamide] came in with a DC50 on B-RAF V600E above 500 nM. On B-RAF G466V, this molecule came in with a DC50 of 10 to 30 nM and a Dmax of 35 to 70%.

At B-RAF V600E, `N#Cc1c(NS(=O)(=O)N2CC[C@@H](F)C2)ccc(F)c1Oc1ccc2ncn(-c3ccc(N4CCN(CCN5CCN(c6ccc(C7CCC(=O)NC7=O)cc6F)CC5)CC4)cc3)c(=O)c2c1` (stereo partly drawn) [Example 244, (3R)-N-{2-cyano-3-[(3-(4-[4-(2-{4-[4-(2,6-dioxopiperidin-3-yl)-2-fluorophenyl]piperazin-1-yl}ethyl)piperazin-1-yl]phenyl}-4-oxo-3,4-dihydroquinazolin-6-yl)oxy]-4-fluorophenyl}-3-fluoropyrrolidine-1-sulfonamide] came in with a DC50 of 50 to 500 nM and a Dmax of 35 to 70%. Besides, at B-RAF G466V, the DC50 fell in the range of 1 to 10 nM and the Dmax was at most 35%.
